Assay results taken from publication PMC9250534, “Synthesis and direct assay of large macrocycle diversities by combinatorial late-stage modification at picomole scale” (Nature Communications, 2022).
Numbered stars: 1 amine (or outer) side, 2 acyl side, 3 side chain; on linkers, the order of the positions; unused ones are H or OH. Bridge positions count the residues as written; N and C are the ends. Square brackets hold non-standard residues; d marks the D form. Peptide text beside a SMILES is read from it. * marks the point of attachment. Propanoyl(3-(4-Cl-Ph)) = O=C(CCc1ccc(Cl)cc1)*; Isoorotoyl = O=C(c1c[nH]c(=O)[nH]c1=O)*; Benzoyl(4-OMe) = COc1ccc(C(=O)*)cc1; 2Thenoyl(5-Cl) = O=C(c1ccc(Cl)s1)*; Benzoyl(4-Cl) = O=C(c1ccc(Cl)cc1)*; Pyrazinecarbonyl = O=C(c1cnccn1)*; X5 = O=C(c1cc2cc(Cl)ccc2[nH]1)*; Cysteamide = C(CS[*:3])N[*:1]; Ethoxyacetyl = CCOCC(=O)*; X1 = O=C(/C=C/c1ccccc1)*; X16 = Cc1cc(C(=O)*)ccc1O; Api = NC1(C(=O)O)CCNCC1; Dap = NC[C@H](N)C(=O)O; Mpa = O=C(O)CCS

Target: MDM2 (Homo sapiens, UniProt Q00987)
Sequence (Q00987 whole entry): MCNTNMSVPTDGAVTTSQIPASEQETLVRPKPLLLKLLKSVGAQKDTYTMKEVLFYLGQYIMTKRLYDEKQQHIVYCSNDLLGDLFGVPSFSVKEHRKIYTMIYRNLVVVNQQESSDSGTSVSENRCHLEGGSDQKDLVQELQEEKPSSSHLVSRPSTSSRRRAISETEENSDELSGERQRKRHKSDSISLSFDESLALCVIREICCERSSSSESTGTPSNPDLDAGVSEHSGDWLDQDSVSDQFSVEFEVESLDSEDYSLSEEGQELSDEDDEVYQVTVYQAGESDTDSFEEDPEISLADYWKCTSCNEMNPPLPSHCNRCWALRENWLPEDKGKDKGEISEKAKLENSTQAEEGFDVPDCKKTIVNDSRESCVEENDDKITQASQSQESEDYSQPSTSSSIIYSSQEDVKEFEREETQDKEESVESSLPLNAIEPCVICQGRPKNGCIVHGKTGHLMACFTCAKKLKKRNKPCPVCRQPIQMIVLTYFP
Assay: MDM2 binding screen: displacement of fluorescent p53 peptide probe FP53 (fluorescence polarization)
Details: for fraction fluorescent probe displaced, Screen: initial screen; for fraction fluorescent probe displaced, Screen / fraction fluorescent probe displaced, Replicate: crude macrocycle reactions; for fraction fluorescent probe displaced: 10 µM macrocycle concentration, crude acylated macrocycle (scaffold Mpa-AA1-AA2-AA3 x carboxylic acid), p53-based fluorescent peptide, human MDM2
Description: We screened Library 2 in 384-microwell plates by dispensing the target protein MDM2 and reporter peptide into the wells containing the macrocycle reactions.
The products were screened for displacement of a p53-based fluorescent peptide from human MDM2. Final macrocycle concentrations were 10 µM. For each macrocycle, the MDM2 binding was measured once.
One fluorescence anisotropy reading was taken with a Tecan Infinite F200 Pro fluorescence plate reader (excitation at 485 nm, emission at 535 nm) at 25 °C. Data was collected and exported using the Tecan Infinite M200 Pro instrument software. The data was analyzed by Excel (version 2016).

O=C1CCSSCCNC(=O)C2(CCN(C(=O)c3ccc(Cl)cc3)CC2)NC(=O)C2CCCN2C(=O)C(Cc2c[nH]c3ccccc23)N1 (stereo not drawn) [X W B1 D6 Acid 25] ([Mpa]WP[Api](Benzoyl(4-Cl))-Cysteamide; disulfide 1-C; configuration not given here) was tested, and the “fraction fluorescent probe displaced, Screen” value (Acid 25) was 0.19 and the “fraction fluorescent probe displaced, Replicate” value (Acid 25) was 0.07.
For COc1ccc(C(=O)NC[C@@H]2NC(=O)[C@@H]3CCCN3C(=O)CCSSCCNC(=O)[C@H](Cc3ccccc3)NC2=O)cc1 [X-B1-D3-F + A71] ([Mpa]P[Dap](Benzoyl(4-OMe))F-Cysteamide; disulfide 1-C), the “fraction fluorescent probe displaced” value was -0.03153.
In the case of O=C1CCSSCCNC(=O)C2CCCN(C2)C(=O)C2CC(NC(=O)c3ccc(Cl)s3)CN2C(=O)C(Cc2ccccc2)N1 (stereo not drawn) [X F D5 B4 Acid 14], the “fraction fluorescent probe displaced, Screen” value (Acid 14) was -0.00483 and the “fraction fluorescent probe displaced, Replicate” value (Acid 14) was 0.0211.
For O=C(NC[C@@H]1NC(=O)[C@@H]2CCCN2C(=O)CCSSCCNC(=O)[C@H](Cc2ccccc2)NC1=O)c1cc2cc(Cl)ccc2[nH]1 [X-B1-D3-F + A39] ([Mpa]P[Dap](X5)F-Cysteamide; disulfide 1-C), the “fraction fluorescent probe displaced” value was 0.08617.
O=C(/C=C/c1ccccc1)NC[C@@H]1NC(=O)[C@H]2CCCN(C2)C(=O)[C@H](Cc2ccccc2)NC(=O)CCSSCCNC1=O [X F B4 D3 Acid 91] was tested, and the “fraction fluorescent probe displaced, Screen” value (Acid 91) was 0.19 and the “fraction fluorescent probe displaced, Replicate” value (Acid 91) was 0.17.
With Cc1cc(C(=O)NC[C@@H]2NC(=O)[C@@H]3CCCN3C(=O)CCSSCCNC(=O)[C@H](Cc3c[nH]c4ccccc34)NC2=O)ccc1O [X-B1-D3-W + A30] ([Mpa]P[Dap](X16)W-Cysteamide; disulfide 1-C) the “fraction fluorescent probe displaced” value was 0.08563.
With CCOCC(=O)NC[C@@H]1NC(=O)[C@@H]2CCCN2C(=O)CCSSCCNC(=O)[C@H](Cc2ccccc2)NC1=O [X-B1-D3-F + A104] ([Mpa]P[Dap](Ethoxyacetyl)F-Cysteamide; disulfide 1-C) the “fraction fluorescent probe displaced” value was 0.09201.
In the case of O=C1CCSSCCNC(=O)c2cccc(c2)CNC(=O)C2(CCN(C(=O)/C=C/c3ccccc3)CC2)NC(=O)[C@H](Cc2c[nH]c3ccccc23)N1 [X W D6 B5 Acid 91], the “fraction fluorescent probe displaced, Screen” value (Acid 91) was 0.40 and the “fraction fluorescent probe displaced, Replicate” value (Acid 91) was 0.34.
For O=C(C=Cc1ccccc1)NC1CC2C(=O)NCc3cccc(c3)C(=O)NC(Cc3ccccc3)C(=O)NCCSSCCC(=O)N2C1 (stereo not drawn) [X D5 B5 F Acid 91], the “fraction fluorescent probe displaced, Screen” value (Acid 91) was -0.05 and the “fraction fluorescent probe displaced, Replicate” value (Acid 91) was 0.07.
For CC(=O)NC[C@@H]1NC(=O)[C@@H]2CCCN2C(=O)CCSSCCNC(=O)[C@H](Cc2ccccc2)NC1=O [X-B1-D3-F + A7] ([Mpa]P[Dap](Ac)F-Cysteamide; disulfide 1-C), the “fraction fluorescent probe displaced” value was 0.02548.
For O=C(NC[C@@H]1NC(=O)[C@@H]2CCCN2C(=O)CCSSCCNC(=O)[C@H](Cc2ccccc2)NC1=O)c1cnccn1 [X-B1-D3-F + A2] ([Mpa]P[Dap](Pyrazinecarbonyl)F-Cysteamide; disulfide 1-C), the “fraction fluorescent probe displaced” value was 0.08617.
With O=C1CCSSCCNC(=O)[C@H](Cc2c[nH]c3ccccc23)NC(=O)[C@@H]2CCCN2C(=O)C2(CCN(C(=O)c3ccc(Cl)s3)CC2)N1 [X D6 B1 W Acid 14] ([Mpa][Api](2Thenoyl(5-Cl))PW-Cysteamide; disulfide 1-C) the “fraction fluorescent probe displaced, Screen” value (Acid 14) was 0.08 and the “fraction fluorescent probe displaced, Replicate” value (Acid 14) was 0.07.
For O=C1CCNC(=O)[C@H](Cc2ccccc2)NC(=O)C2(CCN(C(=O)c3ccc(Cl)s3)CC2)NC(=O)CCSSCCN1 [X D6 F B2 Acid 14], the “fraction fluorescent probe displaced, Screen” value (Acid 14) was 0.0241 and the “fraction fluorescent probe displaced, Replicate” value (Acid 14) was 0.07.
O=C1CCSSCCNC(=O)[C@H](CNC(=O)c2ccc(Cl)s2)NC(=O)[C@H](Cc2ccccc2)NC(=O)c2cccc(c2)CN1 [X B5 F D3 Acid 14] was tested, and the “fraction fluorescent probe displaced, Screen” value (Acid 14) was 0.053 and the “fraction fluorescent probe displaced, Replicate” value (Acid 14) was 0.0211.
With O=C1CCSSCCNC(=O)c2cccc(c2)CNC(=O)C(Cc2ccccc2)NC(=O)C2(CCN(C(=O)C=Cc3ccccc3)CC2)N1 (stereo not drawn) [X D6 F B5 Acid 91] the “fraction fluorescent probe displaced, Screen” value (Acid 91) was -0.05 and the “fraction fluorescent probe displaced, Replicate” value (Acid 91) was -0.00827.
O=C(NC[C@@H]1NC(=O)[C@H](Cc2ccccc2)NC(=O)[C@@H]2CCCN2C(=O)CCSSCCNC1=O)c1ccc(Cl)cc1 [X B1 F D3 Acid 25] ([Mpa]PF[Dap](Benzoyl(4-Cl))-Cysteamide; disulfide 1-C) was tested, and the “fraction fluorescent probe displaced, Screen” value (Acid 25) was 0.09 and the “fraction fluorescent probe displaced, Replicate” value (Acid 25) was 0.20.
O=C(/C=C/c1ccccc1)NC[C@@H]1NC(=O)[C@H](Cc2ccccc2)NC(=O)c2cccc(c2)CNC(=O)CCSSCCNC1=O [X B5 F D3 Acid 91] was tested, and the “fraction fluorescent probe displaced, Screen” value (Acid 91) was -0.05 and the “fraction fluorescent probe displaced, Replicate” value (Acid 91) was -0.00827.
For O=C1CCSSCCNC(=O)C2CC(NC(=O)c3ccc(Cl)s3)CN2C(=O)C2CCCN(C2)C(=O)C(Cc2c[nH]c3ccccc23)N1 (stereo not drawn) [X W B4 D5 Acid 14], the “fraction fluorescent probe displaced, Screen” value (Acid 14) was 0.23 and the “fraction fluorescent probe displaced, Replicate” value (Acid 14) was 0.35.
O=C1CCSSCCNC(=O)C2(CCN(C(=O)c3ccc(Cl)cc3)CC2)NC(=O)C2CCCN(C2)C(=O)C(Cc2ccccc2)N1 (stereo not drawn) [X F B4 D6 Acid 25] was tested, and the “fraction fluorescent probe displaced, Screen” value (Acid 25) was 0.15 and the “fraction fluorescent probe displaced, Replicate” value (Acid 25) was 0.07.
In the case of O=C1CCSSCCNC(=O)[C@H](Cc2ccccc2)NC(=O)[C@@H]2CCCN2C(=O)C2(CCN(C(=O)/C=C/c3ccccc3)CC2)N1 [X D6 B1 F Acid 91] ([Mpa][Api](X1)PF-Cysteamide; disulfide 1-C), the “fraction fluorescent probe displaced, Screen” value (Acid 91) was -0.08 and the “fraction fluorescent probe displaced, Replicate” value (Acid 91) was -0.11.
In the case of O=C(/C=C/c1ccccc1)NC[C@@H]1NC(=O)CCNC(=O)[C@H](Cc2c[nH]c3ccccc23)NC(=O)CCSSCCNC1=O [X W B2 D3 Acid 91], the “fraction fluorescent probe displaced, Screen” value (Acid 91) was 0.08 and the “fraction fluorescent probe displaced, Replicate” value (Acid 91) was 0.09.
In the case of O=C1N[C@@H](Cc2c[nH]c3ccccc23)C(=O)NC2(CCN(C(=O)c3ccc(Cl)s3)CC2)C(=O)NCCSSCCC(=O)N2CCC[C@H]1C2 [X B4 W D6 Acid 14], the “fraction fluorescent probe displaced, Screen” value (Acid 14) was 0.08 and the “fraction fluorescent probe displaced, Replicate” value (Acid 14) was 0.22.
For O=C1CCSSCCNC(=O)C(Cc2c[nH]c3ccccc23)NC(=O)C2CN(C(=O)c3ccc(Cl)cc3)CCN2C(=O)CCN1 (mixture of isomers) [X B2 D7 W Acid 25], the “fraction fluorescent probe displaced, Screen” value (Acid 25) was 0.15 and the “fraction fluorescent probe displaced, Replicate” value (Acid 25) was 0.07.
In the case of O=C1CCSSCCNC(=O)[C@H]2CCCN(C2)C(=O)[C@H](Cc2ccccc2)NC(=O)[C@H](CNC(=O)c2ccc(Cl)s2)N1 [X D3 F B4 Acid 14], the “fraction fluorescent probe displaced, Screen” value (Acid 14) was 0.053 and the “fraction fluorescent probe displaced, Replicate” value (Acid 14) was -0.03.
With O=C1NC(Cc2c[nH]c3ccccc23)C(=O)N2CCCC2C(=O)NCCSSCCC(=O)N2CCN(C(=O)C=Cc3ccccc3)CC12 (stereo not drawn) [X D7 W B1 Acid 91] the “fraction fluorescent probe displaced, Screen” value (Acid 91) was -0.0241 and the “fraction fluorescent probe displaced, Replicate” value (Acid 91) was -0.00827.
In the case of O=C1CCSSCCNC(=O)[C@H]2CCCN(C2)C(=O)C2(CCN(C(=O)/C=C/c3ccccc3)CC2)NC(=O)[C@H](Cc2c[nH]c3ccccc23)N1 [X W D6 B4 Acid 91], the “fraction fluorescent probe displaced, Screen” value (Acid 91) was 0.11 and the “fraction fluorescent probe displaced, Replicate” value (Acid 91) was 0.09.
For CC(=O)NC[C@@H]1NC(=O)[C@@H]2CCCN2C(=O)CCSSCCNC(=O)[C@H](Cc2c[nH]c3ccccc23)NC1=O [X-B1-D3-W + A7] ([Mpa]P[Dap](Ac)W-Cysteamide; disulfide 1-C), the “fraction fluorescent probe displaced” value was 0.05096.
O=C1CCSSCCNC(=O)C2(CCN(C(=O)c3ccc(Cl)s3)CC2)NC(=O)[C@H](Cc2ccccc2)NC(=O)CCN1 [X B2 F D6 Acid 14] was tested, and the “fraction fluorescent probe displaced, Screen” value (Acid 14) was 0.08 and the “fraction fluorescent probe displaced, Replicate” value (Acid 14) was 0.12.
O=C1NC2(CCN(C(=O)c3ccc(Cl)cc3)CC2)C(=O)N[C@@H](Cc2c[nH]c3ccccc23)C(=O)NCCSSCCC(=O)N2CCC[C@H]1C2 [X B4 D6 W Acid 25] was tested, and the “fraction fluorescent probe displaced, Screen” value (Acid 25) was 0.38 and the “fraction fluorescent probe displaced, Replicate” value (Acid 25) was 0.25.
In the case of O=C(CCc1ccc(Cl)cc1)NC[C@@H]1NC(=O)[C@@H]2CCCN2C(=O)CCSSCCNC(=O)[C@H](Cc2c[nH]c3ccccc23)NC1=O [X-B1-D3-W + A42] ([Mpa]P[Dap](Propanoyl(3-(4-Cl-Ph)))W-Cysteamide; disulfide 1-C), the “fraction fluorescent probe displaced” value was 0.05096.
With O=C(/C=C/c1ccccc1)NC[C@@H]1NC(=O)[C@H](Cc2c[nH]c3ccccc23)NC(=O)CCSSCCNC(=O)CCNC1=O [X W D3 B2 Acid 91] the “fraction fluorescent probe displaced, Screen” value (Acid 91) was 0.08 and the “fraction fluorescent probe displaced, Replicate” value (Acid 91) was 0.04.
O=C1CCSSCCNC(=O)[C@H](Cc2ccccc2)NC(=O)[C@H](CNC(=O)c2ccc(Cl)cc2)NC(=O)CCN1 [X B2 D3 F Acid 25] was tested, and the “fraction fluorescent probe displaced, Screen” value (Acid 25) was 0.0244 and the “fraction fluorescent probe displaced, Replicate” value (Acid 25) was -0.0552.
For O=C1CCSSCCNC(=O)[C@H](CNC(=O)c2ccc(Cl)cc2)NC(=O)[C@H](Cc2ccccc2)NC(=O)CCN1 [X B2 F D3 Acid 25], the “fraction fluorescent probe displaced, Screen” value (Acid 25) was 0.0569 and the “fraction fluorescent probe displaced, Replicate” value (Acid 25) was -0.03.
O=C(NC[C@@H]1NC(=O)[C@@H]2CCCN2C(=O)CCSSCCNC(=O)[C@H](Cc2c[nH]c3ccccc23)NC1=O)c1c[nH]c(=O)[nH]c1=O [X-B1-D3-W + A11] ([Mpa]P[Dap](Isoorotoyl)W-Cysteamide; disulfide 1-C) was tested, and the “fraction fluorescent probe displaced” value was 0.1.
With O=C1CCNC(=O)C2CN(C(=O)c3ccc(Cl)cc3)CCN2C(=O)C(Cc2ccccc2)NC(=O)CCSSCCN1 (stereo not drawn) [X F D7 B2 Acid 25] the “fraction fluorescent probe displaced, Screen” value (Acid 25) was -0.07 and the “fraction fluorescent probe displaced, Replicate” value (Acid 25) was 0.10.
In the case of O=C1CCSSCCNC(=O)C2CN(C(=O)C=Cc3ccccc3)CCN2C(=O)C2CCCN(C2)C(=O)C(Cc2ccccc2)N1 (stereo not drawn) [X F B4 D7 Acid 91], the “fraction fluorescent probe displaced, Screen” value (Acid 91) was 0.0563 and the “fraction fluorescent probe displaced, Replicate” value (Acid 91) was 0.0168.
